In patent US20230277553A1, “THERAPEUTIC COMPOSITION OF CURE-PRO COMPOUNDS FOR TARGETED DEGRADATION OF BET DOMAIN PROTEINS, AND METHODS OF MAKING AND USAGE” (CORNELL UNIVERSITY, priority 2020, published 2023):
Entries after “also recorded” stand apart in the source; their conditions may differ.

Tests used:
BRD4 [1] = molecular target: T1, BRD4 (Homo sapiens, UniProt O60885); assay: CURE-PRO-mediated BRD4 degradation with VHL ligands, Western blot, MCF7 cells; type: cell-based; parameters: endogenous in cells; settings: MCF7, 24 h, 1:1 with 8305, 100 nM-10 μM
Protocol: (§1) All cell lines were purchased from ATCC or DSMZ and grown at 37° C. with 5% CO2. Human HeLa cells were cultured in complete growth medium (Dulbecco's modified Eagle's medium (DMEM) supplemented with 10% FBS); MCF7 cells were cultured in complete growth medium (Dulbecco's modified Eagle's medium (DMEM) supplemented with 10% FBS and 0.01 mg/ml human recombinant insulin (Sigma Aldrich); Namalwa and MOLM-13 cells were cultured in complete growth medium (RPMI 1640 medium supplemented with 10% FBS); MV-4-11 were cultured in complete growth medium (Iscove's Modified Dulbecco's medium, supplemented with 10% FBS); HCT116 cells were cultured in complete growth medium (McCoy's 5a Medium supplemented with 10% FBS). For cellular degradation of BRD4 studies, cells were seeded in a 12-well plate at 70-80% confluency, allowed to attach overnight, and incubated with the indicated compounds for the indicated time. When indicated, a 15-minute pretreatment with 10 μM pomalidomide, 10 μM VHL298, 10 μM Nutlin3a, 1 μM MG-132 or 1 μM Carfilzomib was performed before the addition of CURE-PROs. For washout studies, after CURE-PRO treatment, media was aspirated and incubated with complete medium for the indicated time before lysis.
HeLa, MCF7, or HCT116 cells (2.5-3×10^6) were treated for 24 hours with the indicated compounds solubilized in DMSO. The cells were washed in ice-cold PBS and were then lysed in RIPA lysis buffer (150 mM NaCl, 5 mM EDTA, 1% NP-40, 0.5% sodium deoxycholate, 0.1% SDS, 50 mM Tris, pH 8.0.) with Roche protease inhibitor complete cocktail and phosphatase inhibitors (10 mM sodium fluoride, 10 mM sodium pyrophosphate, 1 mM sodium orthovanadate and 20 mM β-glycerophosphate). The total protein concentrations were determined by Bradford Protein Assay and 10-20 μg of protein was loaded onto 4-15% Tris-Glycine gradient gels (Biorad). After standard gel electrophoresis, the separated proteins were transferred to PVDF membrane by wet transfer. The immunoblots were then blocked for 1 hour in 5% skim milk in TBST or 5% BSA in TBST, according to manufacturer's instructions, before an overnight incubation at 4° C. with indicated antibodies and membranes. Membranes were then incubated with the appropriate horseradish peroxidase-conjugated secondary antibodies (1:5,000 dilution) for 1 h at room temperature and the bands were visualized using the Clarity Max Western ECL Substrate (Biorad) and the ChemiDoc Imaging System (Biorad). Signal was detected with ECL Western Blotting Substrate (Pierce) and X-ray film processed with a Konica SRX-101 X-ray film processor or captured by Bio-Rad's Chemidoc Imaging system.
MCF7 cells (3×10^6) were treated for 24 h with the compounds solubilized in DMSO. Compounds were added at 100 nM-10 μM. […]

SLC19A1 = assay: Suppression of c-MYC downstream target gene SLC19A1, RT-PCR (Cells-to-Ct), HeLa cells; type: cell-based, Human; settings: 24 h, 10 μM
Protocol: The suppression of the expression of the downstream c-MYC target, SLC19A1, was measured by RT-PCR using Power SYBR© Green Cells-to-Ct™ Kit (Life Technologies). Adherent cells were plated on 96 well plates at 5,000 cells per well were treated for 24h with monomer compounds and compounds capable of reversible interactions (1 nM-100 μM). Cells were subsequently washed in ice-cold PBS processed according to the manufacturer's instructions. Quantitative real-time PCR was performed using a ViiA™ 7 Real-time PCR System (Applied Biosystems, Foster City, Calif., USA). GAPDH and ACTB served as internal controls. The primers used were (5′-3′): GAPDH-F: AGCCACATCGCTCAGACAC (SEQ ID NO:9), GAPDH-R: GCCCAATACGACCAAATCC (SEQ ID NO:10), ACTB —F: CCAACCGCGAGAAGATGA (SEQ ID NO: 11), ACTB -R: […] (SEQ ID NO: 12), SLC19A1-F: […] (SEQ ID NO:13), SLC19A1-R: […] (SEQ ID NO: 14).
HeLa cells (1×104) were treated for 24 hours in 96 well plates with the compounds solubilized in DMSO. Compounds were added at 10 μM each and RNA expression measured by the Cells-to Ct method described above (Thermofisher). CURE-PRO-mediated suppression of the downstream target gene of c-MYC, SLC19A1, after BRD4 degradation was evident in cells treated with the combination of BRD-N25 and 8310 or 8312 (FIG. 66) and BRD-N39 and 8310 and 8312 (FIG. 67) as indicated by a rightward shift in the curve and in increase in the Ct values.

BRD4 [2] = molecular target: T1, BRD4; assay: CURE-PRO-mediated BRD4 degradation, Western blot, HeLa cells; type: cell-based; parameters: endogenous in cells; host or cells: HeLa
Method in brief: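 HeLa cells treated 24 h with compounds in DMSO (1-10 μM, 10 μM or 100 μM each; paired monomers combined 1:1), optional 15-min pretreatment with pomalidomide, VHL298, Nutlin3a (10 μM) or MG-132/carfilzomib (1 μM). RIPA lysates, 10-20 μg protein immunoblotted for BRD4 with β-actin, ECL detection.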

BRD4 [3] = molecular target: T1, BRD4; assay: CURE-PRO-mediated BRD4 degradation, WES (ProteinSimple), HeLa cells; type: cell-based; parameters: endogenous in cells; host or cells: HeLa
Protocol: as §1
Anti-BRD4 (13440, 1:1,000 dilution for Western Blot and 1:25 dilution for ProteinSimple); Anti-BRD2 (5848 1:1,000 dilution for Western Blot and 1:25 dilution for ProteinSimple); β-Actin (3700, 1:2,000 dilution for Western Blot), β-Actin (4970, 1:50 dilution for ProteinSimple) anti-mouse IgG-HRP, and anti-rabbit IgG-HRP antibodies were purchased Cell Signaling Technology. Anti-GAPDH (600-401-A33, 1:100 dilution for ProteinSimple) was purchased from Rockland Immunochemicals, Inc. Anti-BRD3 (sc-81202, 1:200 dilution for Western Blot) was purchased from Santa Cruz Biotechnology.
WES Simple analysis was performed on WES system (ProteinSimple-Biotechne) according to the manufacturer's instructions. Total protein concentrations of cell lysates were determined by the Pierce BCA kit (Thermo Fisher). 3 μL of 0.3 μg/μL of the protein lysate was loaded onto a 12- to 230-kDa WES assay plate (ProteinSimple) where 300 nL sample was withdrawn through a capillary, subjected to electrophoretic separation of proteins by size, and followed by the simultaneous, HRP-based detection of proteins using the Anti-Rabbit Detection Module (Proteinsimple: #DM-001). The electropherograms were checked then the automatic peak detection was manually corrected if it was required.
HeLa cells (2.5×10^6) were treated for 4-24 hours with the compounds solubilized in DMSO. After 4 hours, indicated points were washed and cells were left in full growth media. Compounds were added at 10 μM each. […]

BRD4 [4] = molecular target: T1, BRD4; assay: Summary of BRD4 degradation by CURE-PRO pairs, estimated from Western Blot or WES (Proteinsimple); type: cell-based; parameters: endogenous in cells; settings: Table 1, CRBN ligand
Text: A black check mark indicates efficacy of 30% to 70% or higher protein degradation.

caspase 3/7 = assay: Caspase-Glo 3/7 assay, Namalwa cells; type: cell-based; settings: 24 hours, 1:1 with 8047
Protocol: Caspase-glo® assay (Promega) was conducted following the manufacturer's recommendations. Cells were seeded at a density of 5000 cells/well in a white 96 well plates (Corning, #3917) in a total volume of 100 μl with respective monomers, combinations of BRD ligands together with E3 ligase ligands or vehicle control treatment. After a 24 h incubation, 100 μl of the […] substrate was added per well and luminescence was read on a Spectramax M5 (Molecular Devices).
Namalwa cells (5×104) were treated for 24 hours with the compounds solubilized in DMSO. FIG. 57 is a bar graph depiction of fold increase of apoptosis assessed via caspase 3/7 activity using the Caspase-glo assay (Promega) described above.
Molm-13 (FIG. 76A) or Namalwa (FIG. 76B) cells (5×10^4) were treated for 24 hours with the compounds solubilized in DMSO in white 96 well plates (10 nM-10 μM solubilized in DMSO). FIG. 76 is a bar graph depiction of fold increase of apoptosis assessed via caspase 3/7 activity using the Caspase-glo assay (Promega) described above.

COc1ccc2c(c1)C(c1ccc(Cl)cc1)=N[C@@H](CC(=O)NCc1ccc(B(O)O)cc1)c1nnc(C)n1-2 [BRD-E9, (4-((2-((4S)-6-(4-chlorophenyl)-8-methoxy-1-methyl-4H-benzo[f][1,2,4]triazolo[4,3-a][1,4]diazepin-4-yl)acetamido)methyl)phenyl)boronic acid]
BRD4 degradation, with VHL ligand 8305 (Western blot) (BRD4 [1]): there is degradation of BRD4

Nc1cccc2c1C(=O)N(C1CCC(=O)NC1=O)C2=O (stereo not drawn) [pomalidomide, reference compound]
Suppression of SLC19A1 expression, single compound (SLC19A1): no suppression
Inhibition of CURE-PRO-mediated BRD4 degradation (BRD-E52 or BRD-E72 with 8047) by preincubation (BRD4 [2]; 15 min preincubation, equimolar (10 μM)): competitively inhibited; also recorded: inhibition of CURE-PRO-mediated BRD4 degradation

CCNC(=O)C[C@@H]1N=C(c2ccc(Sc3ccccc3)cc2)c2cc(OC)ccc2-n2c(C)nnc21 [BRD-E52C, N-ethyl-2-((4S)-8-methoxy-1-methyl-6-(4-(phenylthio)phenyl)-4H-benzo[f][1,2,4]triazolo[4,3-a][1,4]diazepin-4-yl)acetamide]
Concentration at which BRD4 degradation is induced, with 8047 (WES) (BRD4 [3]; 24 h, tested 100 nM-10 μM each): > 10 µM

CCNC(=O)C[C@@H]1N=C(c2ccc(Sc3cccc(B(O)O)c3)cc2)c2cc(OC)ccc2-n2c(C)nnc21 [BRD-E52, (3-((4-((4S)-4-(2-(ethylamino)-2-oxoethyl)-8-methoxy-1-methyl-4H-benzo[f][1,2,4]triazolo[4,3-a][1,4]diazepin-6-yl)phenyl)thio)phenyl)boronic acid]
Degradation of BRD4 in combination with CRBN ligand [drawing 371] (BRD4 [4]; second drawing (8047)): ✓ (A black check mark indicates efficacy of 30% to 70% or higher protein degradation)
Degradation of BRD4 in combination with CRBN ligand [drawing 372] (BRD4 [4]; third drawing (8066)): ✓ (A black check mark indicates efficacy of 30% to 70% or higher protein degradation)
BRD4 degradation, co-dosing with CRBN ligand 8047 (WES) (BRD4 [3]; 10 μM each, 4-24 h with washout after 4 h, or 100 nM-10 μM): marked BRD4 degradation after 4h with sustained degradation for up to 8h after drugs are washed out
Concentration from which BRD4 protein expression decreases, with 8047 (WES) (BRD4 [3]; 24 h, tested 100 nM-10 μM each): ≥ 300 nM
Caspase 3/7 activation, co-dosed with CRBN ligand 8047 (caspase 3/7): demonstrates activation of caspase 3/7; also recorded: marked caspase activation
BRD4 degradation, BRD ligand with pomalidomide (no 8047) (BRD4 [2]; 24 h, 10 μM): failed to induce BRD4 degradation
BRD4 degradation, co-treatment with CRBN ligand 8047 (BRD4 [2]; 24 h, 1:1 with 8047, 10 μM each, Western blot): causes degradation of BRD4

Cc1sc2c(c1C)C(c1ccc(Cl)cc1)=N[C@@H](CC(=O)Nc1ccc(OCCOCCOCCOCCNc3cccc4c3C(=O)N(C3CCC(=O)NC3=O)C4=O)cc1)c1nnc(C)n1-2 (stereo partly drawn) [ARV-825, reference compound]
Suppression of SLC19A1 expression, single compound (SLC19A1): Complete suppression of SLC19A1 was evident; also recorded: completely suppressed
